# Test results from US20250114345A1, “COMPOUNDS AND COMPOSITIONS AS CBP/P300 DEGRADERS AND USES THEREOF” (Oncopia Therapeutics, Inc. d/b/a/ SK Life Science Labs, priority 2023, published 2025).
# Biological target: T1, p300 (Homo sapiens, UniProt Q09472)
# T1 construct: host or cells: A549 P300 HiBit cells
# Assay: P300 degradation, HiBit technology in A549 P300 HiBit cells (2 h)
# Format: cell-based
# Settings: 2 hrs post treatment; for Dmax: A549, A549 P300 HiBit cells; for DC50: A549 P300 HiBit cells
# Summary of the method: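 HiBiT knock-in A549 cells received compound in serial dilution at 37 °C under 5% CO2. Remaining tagged protein was quantified by lytic HiBiT luminescence after 10 min shaking at room temperature, yielding potency and maximal degradation.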
# T1 sequence (Q09472 whole entry): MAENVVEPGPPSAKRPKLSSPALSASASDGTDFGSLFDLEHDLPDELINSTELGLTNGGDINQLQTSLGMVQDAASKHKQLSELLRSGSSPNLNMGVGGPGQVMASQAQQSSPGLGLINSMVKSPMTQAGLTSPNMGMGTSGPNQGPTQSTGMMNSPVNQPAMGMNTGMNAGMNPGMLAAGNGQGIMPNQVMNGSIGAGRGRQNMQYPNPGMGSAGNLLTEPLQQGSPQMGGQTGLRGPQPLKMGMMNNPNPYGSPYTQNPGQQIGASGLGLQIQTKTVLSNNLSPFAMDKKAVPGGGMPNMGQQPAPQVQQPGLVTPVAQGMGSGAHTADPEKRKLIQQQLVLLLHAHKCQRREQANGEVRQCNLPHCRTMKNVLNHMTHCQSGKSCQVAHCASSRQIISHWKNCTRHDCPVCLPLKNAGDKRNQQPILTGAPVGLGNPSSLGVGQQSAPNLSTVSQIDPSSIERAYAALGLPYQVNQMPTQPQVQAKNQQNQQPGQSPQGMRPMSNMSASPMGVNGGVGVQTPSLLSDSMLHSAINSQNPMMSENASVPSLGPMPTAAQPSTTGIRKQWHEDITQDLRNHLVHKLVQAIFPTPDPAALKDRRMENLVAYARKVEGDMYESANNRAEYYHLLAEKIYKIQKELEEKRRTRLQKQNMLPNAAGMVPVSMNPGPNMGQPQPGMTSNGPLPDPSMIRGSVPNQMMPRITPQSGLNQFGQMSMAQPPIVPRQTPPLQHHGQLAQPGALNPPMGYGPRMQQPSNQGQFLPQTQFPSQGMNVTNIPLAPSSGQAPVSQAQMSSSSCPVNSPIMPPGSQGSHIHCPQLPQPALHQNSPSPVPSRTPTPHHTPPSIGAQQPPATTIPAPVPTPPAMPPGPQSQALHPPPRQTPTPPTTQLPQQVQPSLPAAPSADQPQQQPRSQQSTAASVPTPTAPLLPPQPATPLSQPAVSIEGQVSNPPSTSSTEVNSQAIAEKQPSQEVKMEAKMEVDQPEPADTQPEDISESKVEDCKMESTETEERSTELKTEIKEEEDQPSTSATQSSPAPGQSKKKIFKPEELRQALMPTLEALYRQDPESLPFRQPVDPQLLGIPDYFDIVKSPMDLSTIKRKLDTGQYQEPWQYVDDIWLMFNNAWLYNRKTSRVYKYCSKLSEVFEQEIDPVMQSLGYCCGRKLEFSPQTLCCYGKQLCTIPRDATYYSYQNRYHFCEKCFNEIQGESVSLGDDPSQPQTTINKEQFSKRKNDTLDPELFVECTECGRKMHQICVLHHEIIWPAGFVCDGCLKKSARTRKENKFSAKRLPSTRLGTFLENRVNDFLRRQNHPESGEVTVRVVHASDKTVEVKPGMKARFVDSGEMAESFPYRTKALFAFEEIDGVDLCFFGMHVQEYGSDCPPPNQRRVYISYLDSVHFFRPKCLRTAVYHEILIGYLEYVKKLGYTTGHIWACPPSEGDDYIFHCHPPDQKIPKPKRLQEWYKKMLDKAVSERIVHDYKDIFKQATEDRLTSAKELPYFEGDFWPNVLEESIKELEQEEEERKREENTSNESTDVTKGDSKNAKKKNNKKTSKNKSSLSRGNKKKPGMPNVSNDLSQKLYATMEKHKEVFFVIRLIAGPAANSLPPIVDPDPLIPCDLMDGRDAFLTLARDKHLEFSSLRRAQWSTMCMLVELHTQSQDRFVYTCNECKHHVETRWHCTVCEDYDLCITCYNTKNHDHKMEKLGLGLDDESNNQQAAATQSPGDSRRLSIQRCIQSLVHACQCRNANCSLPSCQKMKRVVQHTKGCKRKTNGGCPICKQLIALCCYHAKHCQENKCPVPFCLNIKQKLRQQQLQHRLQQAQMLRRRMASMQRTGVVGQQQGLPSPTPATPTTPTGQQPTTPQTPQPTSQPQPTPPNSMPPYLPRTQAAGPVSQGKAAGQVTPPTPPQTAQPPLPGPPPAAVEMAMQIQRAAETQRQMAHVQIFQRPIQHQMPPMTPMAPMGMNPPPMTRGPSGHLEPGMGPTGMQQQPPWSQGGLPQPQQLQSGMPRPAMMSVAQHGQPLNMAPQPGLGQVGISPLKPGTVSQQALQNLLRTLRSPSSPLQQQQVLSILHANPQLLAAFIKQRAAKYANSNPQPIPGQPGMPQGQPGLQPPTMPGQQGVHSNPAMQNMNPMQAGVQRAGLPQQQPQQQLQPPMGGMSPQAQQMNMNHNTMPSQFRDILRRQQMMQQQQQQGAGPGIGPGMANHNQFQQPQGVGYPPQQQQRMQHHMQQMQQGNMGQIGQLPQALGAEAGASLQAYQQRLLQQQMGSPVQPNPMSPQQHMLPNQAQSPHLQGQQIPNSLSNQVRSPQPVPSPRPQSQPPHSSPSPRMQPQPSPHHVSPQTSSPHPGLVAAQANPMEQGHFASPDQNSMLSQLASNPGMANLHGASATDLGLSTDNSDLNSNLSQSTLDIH
Structure (SMILES),Dmax,DC50
"Cn1c(=O)n(C)c2cc(N3CC(C)(C)Oc4nc(-c5ccc(C(=O)NCC#Cc6cc7c(C8CCC(=O)NC8=O)cccc7o6)nc5)ncc43)ccc21 (stereo not shown) [Example A264, 5-(5-(1,3-dimethyl-2-oxo-2,3-dihydro-1H-benzo[d]imidazol-5-yl)-7,7-dimethyl-6,7-dihydro-5H-pyrimido [4,5-b][1,4]oxazin-2-yl)-N-(3-(4-(2,6-dioxopiperidin-3-yl)benzofuran-2-yl)prop-2-yn-1-yl)picolinamide]",> 80%,1 to 9.9 nM
"CC(C)c1cc(-c2cccc3cc(-c4ccc(C(=O)NCC#Cc5cnc6c(c5)N(C5CCC(=O)NC5=O)CC6)nc4)ncc23)cc2c1n(C)c(=O)n2C (stereo not shown) [Example A249, N-(3-(1-(2,6-dioxo-piperidin-3-yl)-2,3-dihydro-1H-pyrrolo [3,2-b]pyridin-6-yl)prop-2-yn-1-yl)-5-(8-(7-isopropyl-1,3-dimethyl-2-oxo-2,3-dihydro-1H-benzo[d]imidazol-5-yl)isoquinolin-3-yl)picolinamide]",20 to 39%,10 to 99 nM
"Cc1cc(-c2ncc(N(C)c3ccc4c(c3)n(C)c(=O)n4C)cn2)cnc1C(=O)NCC#Cc1cc2c(C3CCC(=O)NC3=O)nccc2o1 (stereo not shown) [Example A192, 5-(5-((1,3-dimethyl-2-oxo-2,3-dihydro-1H-benzo[d]imidazol-5-yl)(methyl)amino)pyrimidin-2-yl)-N-(3-(4-(2,6-dioxopiperidin-3-yl)furo[3,2-c]pyridin-2-yl)prop-2-yn-1-yl)-3-methylpicolinamide]",> 80%,1 to 9.9 nM
"CCc1cc2c(cc(C)c(=O)n2C)c(-c2cccc3cc(-c4ccc(C(=O)NCC#Cc5ccc6occ(C7CCC(=O)NC7=O)c6c5)nc4)ncc23)n1 (stereo not shown) [Example B93, N-(3-(3-(2,6-dioxopiperidin-3-yl)benzofuran-5-yl)prop-2-yn-1-yl)-5-(8-(7-ethyl-1,3-dimethyl-2-oxo-1,2-dihydro-1,6-naphthyridin-5-yl)isoquinolin-3-yl)picolinamide]",60 to 79%,1 to 9.9 nM
"CC(C)c1cc(-c2cccc3cc(-c4ccc(C(=O)NCc5ccc(-c6cnn(C7CCC(=O)NC7=O)c6)cc5)nc4)ncc23)cc2c1n(C)c(=O)n2C (stereo not shown) [Example A33, N-(4-(1-(2,6-Dioxopiperidin-3-yl)-1H-pyrazol-4-yl)benzyl)-5-(8-(7-isopropyl-1,3-dimethyl-2-oxo-2,3-dihydro-1H-benzo[d]imidazol-5-yl)isoquinolin-3-yl)picolinamide]",< 20%,> 1000 nM
"Cc1cc(-c2ncc(N(C)c3cc(C(C)C)c4c(c3)n(C)c(=O)n4C)cn2)cnc1C(=O)NCC#Cc1cc2c(C3CCC(=O)NC3=O)coc2cc1F (stereo not shown) [Example A235, N-(3-(3-(2,6-dioxo-piperidin-3-yl)-6-fluorobenzofuran-5-yl)prop-2-yn-1-yl)-5-(5-((7-isopropyl-1,3-dimethyl-2-oxo-2,3-dihydro-1H-benzo [d]imidazol-5-yl)(methyl)amino)pyrimidin-2-yl)-3-methylpicolinamide]",> 80%,1 to 9.9 nM
"Cc1cc2c(N3CCOc4cc(-c5ccc(C(=O)NCC#Cc6ccc7occ(C8CCC(=O)NC8=O)c7c6)nc5)ncc43)cc(C3CCOCC3)cc2n(C)c1=O (stereo not shown) [Example B109, 5-(4-(1,3-dimethyl-2-oxo-7-(tetrahydro-2H-pyran-4-yl)-1,2-dihydroquinolin-5-yl)-3,4-dihydro-2H-pyrido[4,3-b][1,4]oxazin-7-yl)-N-(3-(3-(2,6-dioxopiperidin-3-yl)benzofuran-5-yl)prop-2-yn-1-yl)picolinamide]",> 80%,< 1 nM
"Cc1cc(-c2ncc(N(C)c3cc(C4CCOCC4)c4oc(=O)n(C)c4c3)cn2)cnc1C(=O)NCC#Cc1ccc2occ(C3CCC(=O)NC3=O)c2c1 (stereo not shown) [Example A114, N-(3-(3-(2,6-dioxo-piperidin-3-yl)benzofuran-5-yl)prop-2-yn-1-yl)-3-methyl-5-(5-(methyl (3-methyl-2-oxo-7-(tetrahydro-2H-pyran-4-yl)-2,3-dihydrobenzo[d]oxazol-5-yl)amino)pyrimidin-2-yl)picolinamide]",< 20%,> 1000 nM
"Cn1c(=O)n(C)c2c(N3CCOCC3)nc(-c3cccc4cc(-c5ccc(C(=O)NCC#Cc6cc7c(C8CCC(=O)NC8=O)nccc7o6)nc5)ncc34)cc21 (stereo not shown) [Example A206, 5-(8-(1,3-dimethyl-4-morpholino-2-oxo-2,3-dihydro-1H-imidazo[4,5-c]pyridin-6-yl)isoquinolin-3-yl)-N-(3-(4-(2,6-dioxopiperidin-3-yl)furo[3,2-c]pyridin-2-yl)prop-2-yn-1-yl)picolinamide]",> 80%,< 1 nM
"COc1cc2cnn(C3CCC(=O)NC3=O)c2cc1C#CCNC(=O)c1ccc(-c2cc3cccc(-c4cc(C(C)C)c5c(c4)n(C)c(=O)n5C)c3cn2)cn1 (stereo not shown) [Example A27, N-(3-(1-(2,6-Dioxopiperidin-3-yl)-5-methoxy-1H-indazol-6-yl)prop-2-yn-1-yl)-5-(8-(7-isopropyl-1,3-dimethyl-2-oxo-2,3-dihydro-1H-benzo[d]imidazol-5-yl)isoquinolin-3-yl)picolinamide]",60 to 79%,1 to 9.9 nM

# The next lines start with the values.
Dmax,DC50,Structure (SMILES)
> 80%,1 to 9.9 nM,"Cn1c(=O)n(C)c2c(C3CCOCC3)nc(-c3cccc4cc(-c5ccc(C(=O)NCC#Cc6ccc7occ(C8CCC(=O)NC8=O)c7c6)nc5)ncc34)cc21 (stereo not shown) [Example A135, 5-(8-(1,3-dimethyl-2-oxo-4-(tetrahydro-2H-pyran-4-yl)-2,3-dihydro-1H-imidazo[4,5-c]pyridin-6-yl)isoquinolin-3-yl)-N-(3-(3-(2,6-dioxopiperidin-3-yl)benzofuran-5-yl)prop-2-yn-1-yl)picolinamide]"
40 to 59%,10 to 99 nM,"CC(C)c1cc(-c2cccc3cc(-c4ccc(C(=O)NCC#Cc5cc6c(C7CCC(=O)NC7=O)cn(C)c6cn5)nc4)ncc23)cc2c1n(C)c(=O)n2C (stereo not shown) [Example A232, N-(3-(3-(2,6-dioxo-piperidin-3-yl)-1-methyl-1H-pyrrolo [2,3-c]pyridin-5-yl)prop-2-yn-1-yl)-5-(8-(7-isopropyl-1,3-dimethyl-2-oxo-2,3-dihydro-1H-benzo[d]imidazol-5-yl)isoquinolin-3-yl)picolinamide]"
> 80%,10 to 99 nM,"Cc1cc(-c2ccc(N(C)c3cc(C(C)C)c4c(c3)n(C)c(=O)n4C)cc2C#N)cnc1C(=O)NCC#Cc1cccc(NC2CCC(=O)NC2=O)c1 (stereo not shown) [Example A46, 5-(2-cyano-4-((7-isopropyl-1,3-dimethyl-2-oxo-2,3-dihydro-1H-benzo[d]imidazol-5-yl)(methyl)amino)phenyl)-N-(3-(3-((2,6-dioxopiperidin-3-yl)amino)phenyl)prop-2-yn-1-yl)-3-methylpicolinamide]"
60 to 79%,10 to 99 nM,"COc1cc(C#CCNC(=O)c2ccc(-c3cc4cccc(-c5cc(C(C)C)c6c(c5)n(C)c(=O)n6C)c4cn3)cn2)cc2c1cnn2C1CCC(=O)NC1=O (stereo not shown) [Example A26, N-(3-(1-(2,6-Dioxopiperidin-3-yl)-4-methoxy-1H-indazol-6-yl)prop-2-yn-1-yl)-5-(8-(7-isopropyl-1,3-dimethyl-2-oxo-2,3-dihydro-1H-benzo[d]imidazol-5-yl)isoquinolin-3-yl)picolinamide]"
> 80%,< 1 nM,"Cc1cc(-c2cccc3cc(-c4ccc(C(=O)NCC#Cc5cc6c(C7CCC(=O)NC7=O)cccc6o5)nc4)ncc23)cc2c1n(C)c(=O)n2C (stereo not shown) [Example A183, N-(3-(4-(2,6-dioxo-piperidin-3-yl)benzofuran-2-yl)prop-2-yn-1-yl)-5-(8-(1,3,7-trimethyl-2-oxo-2,3-dihydro-1H-benzo[d]imidazol-5-yl)isoquinolin-3-yl)picolinamide]"
> 80%,1 to 9.9 nM,"Cc1cc(-c2ccc(N(C)c3cc(C4=CCOCC4)c4c(c3)n(C)c(=O)n4C)cn2)cnc1C(=O)NCC#Cc1cccc(NC2CCC(=O)NC2=O)c1 (stereo not shown) [Example A40, 5-((7-(3,6-dihydro-2H-pyran-4-yl)-1,3-dimethyl-2-oxo-2,3-dihydro-1H-benzo[d]imidazol-5-yl)(methyl)amino)-N-(3-(3-((2,6-dioxopiperidin-3-yl)amino)phenyl)prop-2-yn-1-yl)-5′-methyl-[2,3′-bipyridine]-6′-carboxamide]"
< 20%,> 1000 nM,"CC(C)c1cc(-c2cccc3cc(-c4ccc(C(=O)NCC#Cc5ccc6c(c5)nnn6C5CCC(=O)NC5=O)nc4)ncc23)cc2c1n(C)c(=O)n2C (stereo not shown) [Example A17, N-(3-(1-(2,6-Dioxopiperidin-3-yl)-1H-benzo[d][1,2,3]triazol-5-yl)prop-2-yn-1-yl)-5-(8-(7-isopropyl-1,3-dimethyl-2-oxo-2,3-dihydro-1H-benzo[d]imidazol-5-yl)isoquinolin-3-yl)picolinamide]"
> 80%,1 to 9.9 nM,"CC(C)c1cc(C2CC(C)(C)Oc3cc(-c4ccc(C(=O)NCC#Cc5ccc6occ(C7CCC(=O)NC7=O)c6c5)nc4)c(F)cc32)cc2c1n(C)c(=O)n2C (stereo not shown) [Example A85, N-(3-(3-(2,6-dioxo-piperidin-3-yl)benzofuran-5-yl)prop-2-yn-1-yl)-5-(6-fluoro-4-(7-isopropyl-1,3-dimethyl-2-oxo-2,3-dihydro-1H-benzo [d]imidazol-5-yl)-2,2-dimethylchroman-7-yl)picolinamide]"
60 to 79%,100 to 999 nM,"CC(C)c1cc(-c2cccc3cc(-c4ccc(C(=O)NCC#Cc5cc(C#N)c6cnn(C7CCC(=O)NC7=O)c6c5)nc4)ncc23)cc2c1n(C)c(=O)n2C (stereo not shown) [Example A21, N-(3-(4-Cyano-1-(2,6-dioxopiperidin-3-yl)-1H-indazol-6-yl)prop-2-yn-1-yl)-5-(8-(7-isopropyl-1,3-dimethyl-2-oxo-2,3-dihydro-1H-benzo[d]imidazol-5-yl)isoquinolin-3-yl)picolinamide]"
> 80%,1 to 9.9 nM,"Cc1cc(-c2cc3cccc(-c4ccc5c(c4)n(C)c(=O)n5C)c3cn2)cnc1C(=O)NCC#Cc1ccc2occ([C@H]3CCC(=O)NC3=O)c2c1 [Example A62, (R)-5-(8-(1,3-dimethyl-2-oxo-2,3-dihydro-1H-benzo[d]imidazol-5-yl)isoquinolin-3-yl)-N-(3-(3-(2,6-dioxo-piperidin-3-yl)benzofuran-5-yl)prop-2-yn-1-yl)-3-methylpicolinamide]"
